Legend:
KURAMOCHI = assay: drug sensitivity score (DSS2) on cancer cell count; higher = more sensitive; extreme values may be limits of the assay; details: 72 h
Procedure, shortened: (§1)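 Screen quality was checked by Z', and a drug sensitivity score was derived in Breeze from logistic fits of the cancer cell counts. These counts were obtained by imaging at 10× (4 fields) after fixing and immunostaining for CK8/18 with Hoechst. Before that, ovarian cancer cells, alone or in 1:1 direct co-culture with lung or skin fibroblasts, had been treated for 72 h on 384-well plates acoustically pre-spotted with 528 approved and investigational compounds at 5 concentrations.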

OVCAR8 = assay: as above; details: 72 h
Procedure, shortened: as §1

[1] = co-cultured fibroblast: BJHTERT
[2] = co-cultured fibroblast: none (monoculture)

Compound | drug sensitivity score (KURAMOCHI; [1]) [DSS] | drug sensitivity score (KURAMOCHI; co-cultured fibroblast: WI38) [DSS] | drug sensitivity score (KURAMOCHI; [2]) [DSS] | drug sensitivity score (OVCAR8; [1]) [DSS] | drug sensitivity score (OVCAR8; co-cultured fibroblast: WI38) [DSS] | drug sensitivity score (OVCAR8; [2]) [DSS]
CO[C@H]1C(=O)[C@]2(C)[C@@H](OC)C[C@H]3OC[C@@]3(OC(C)=O)[C@H]2[C@H](OC(=O)c2ccccc2)[C@]2(O)C[C@H](OC(=O)[C@H](O)[C@@H](NC(=O)OC(C)(C)C)c3ccccc3)C(C)=C1C2(C)C [Cabazitaxel] | 27.5 | 27.8 | 21.4 | 39.1 | 36 | 26
COc1cc2nccc(Oc3ccc(NC(=O)C4(C(=O)Nc5ccc(F)cc5)CC4)cc3)c2cc1OC [Cabozantinib] | 0.4 | 0 | 0 | 0 | 0.2 | 4.4
C=CC(=O)Nc1cc2c(Nc3ccc(F)c(Cl)c3)ncnc2cc1OCCCN1CCOCC1 [Canertinib] | 9.4 | 9.2 | 24.2 | 9.6 | 8.3 | 9.4
CCCCCOC(=O)Nc1nc(=O)n([C@@H]2O[C@H](C)[C@@H](O)[C@H]2O)cc1F [Capecitabine] | 3.3 | 0 | 0 | 0 | 2.7 | 1.2
CNC(=O)c1ccc(-c2cnc3ncc(Cc4ccc5ncccc5c4)n3n2)cc1F [Capmatinib] | 0 | 0 | 0 | 0 | 0 | 0
O=C(O)C1(C(=O)O)CCC1.[NH2-].[NH2-].[Pt+2] [Carboplatin] | 13.3 | 18.1 | 22.9 | 9.4 | 8.6 | 12.3
CC(C)C[C@H](NC(=O)[C@H](CCc1ccccc1)NC(=O)CN1CCOCC1)C(=O)N[C@@H](Cc1ccccc1)C(=O)N[C@@H](CC(C)C)C(=O)[C@@]1(C)CO1 [Carfilzomib] | 21.8 | 23.4 | 22.6 | 26.2 | 18 | 17.8
COc1cc2c(Oc3ccc4[nH]c(C)cc4c3F)ncnc2cc1OCCCN1CCCC1 [Cediranib] | 0 | 0 | 0 | 0 | 0 | 0
Cc1ccc(-c2cc(C(F)(F)F)nn2-c2ccc(S(N)(=O)=O)cc2)cc1 [Celecoxib] | 0 | 0 | 0.5 | 0.1 | 0 | 0.1
CCS(=O)(=O)N1CCN(c2ccc(Nc3ncc(C(N)=O)c(NC4CC4)n3)cc2)CC1 [Cerdulatinib] | 0 | 4.3 | 1.1 | 0 | 4.3 | 1.1
Cc1cc(Nc2ncc(Cl)c(Nc3ccccc3S(=O)(=O)C(C)C)n2)c(OC(C)C)cc1C1CCNCC1 [Ceritinib] | 1.3 | 0 | 2.2 | 1.8 | 0 | 3.7
CC(C)[C@H]1C(=O)N[C@@H](CCCNC(=N)N)C(=O)NCC(=O)N[C@@H](CC(=O)O)C(=O)N[C@H](Cc2ccccc2)C(=O)N1C [Cilengitide] | 5.8 | 3.3 | 7.4 | 9.6 | 16.3 | 13.2
N.N.[Cl][Pt][Cl] [Cisplatin] | 1.6 | 6.5 | 4.7 | 7.2 | 9.4 | 8.5
Nc1nc(Cl)nc2c1ncn2[C@H]1C[C@H](O)[C@@H](CO)O1 [Cladribine] | 5.2 | 6.7 | 1.4 | 14.7 | 20.7 | 15.7
Nc1nc(Cl)nc2c1ncn2[C@@H]1O[C@H](CO)[C@@H](O)[C@@H]1F [Clofarabine] | 13 | 19.7 | 10.7 | 30.7 | 28.7 | 27.7
CCN(CC)CCOc1ccc(C(=C(Cl)c2ccccc2)c2ccccc2)cc1 [Clomifene] | 3.7 | 5.6 | 7.9 | 4.3 | 10.1 | 1.9
O=C(c1ccc(F)c(F)c1Nc1ccc(I)cc1F)N1CC(O)([C@@H]2CCCCN2)C1 [Cobimetinib] | 11.5 | 6.4 | 7.2 | 8.4 | 2.1 | 9.6
CC1(COc2ccc3c(c2)ncn3-c2ccc3cccc(N4CCC(N)CC4)c3n2)COC1 [Crenolanib] | 12.6 | 10.5 | 18 | 4.7 | 14.6 | 5.5
C[C@@H](Oc1cc(-c2cnn(C3CCNCC3)c2)cnc1N)c1c(Cl)ccc(F)c1Cl [Crizotinib] | 0 | 0 | 0 | 0.7 | 0 | 0
CC(C)(C)c1nc(-c2cccc(NS(=O)(=O)c3c(F)cccc3F)c2F)c(-c2ccnc(N)n2)s1 [Dabrafenib] | 0 | 0 | 0 | 0.2 | 15.2 | 0.5
COc1cc2ncnc(Nc3ccc(F)c(Cl)c3)c2cc1NC(=O)/C=C/CN1CCCCC1 [Dacomitinib] | 7 | 3.7 | 8.3 | 5.5 | 0 | 3.2
Cc1c2oc3c(C)ccc(C(=O)N[C@@H]4C(=O)N[C@H](C(C)C)C(=O)N5CCC[C@H]5C(=O)N(C)CC(=O)N(C)[C@@H](C(C)C)C(=O)O[C@@H]4C)c3nc-2c(C(=O)N[C@@H]2C(=O)N[C@H](C(C)C)C(=O)N3CCC[C@H]3C(=O)N(C)CC(=O)N(C)[C@@H](C(C)C)C(=O)O[C@@H]2C)c(N)c1=O [Dactinomycin] | 25.7 | 25.9 | 34 | 31.6 | 32.4 | 31.8
Cn1c(=O)n(-c2ccc(C(C)(C)C#N)cc2)c2c3cc(-c4cnc5ccccc5c4)ccc3ncc21 [Dactolisib] | 12.4 | 15.5 | 20.5 | 13.3 | 8.2 | 17.6
CO[C@@H](C(=O)N1Cc2[nH]nc(NC(=O)c3ccc(N4CCN(C)CC4)cc3)c2C1)c1ccccc1 [Danusertib] | 22.9 | 20.9 | 28.6 | 15 | 19.2 | 21

Compound | drug sensitivity score (KURAMOCHI; [1]) [DSS] | drug sensitivity score (KURAMOCHI; co-cultured fibroblast: WI38) [DSS] | drug sensitivity score (KURAMOCHI; [2]) [DSS] | drug sensitivity score (OVCAR8; [1]) [DSS] | drug sensitivity score (OVCAR8; co-cultured fibroblast: WI38) [DSS] | drug sensitivity score (OVCAR8; [2]) [DSS]
O=C(/C=C/c1cccnc1)NCCCCC1CCN(C(=O)c2ccccc2)CC1 [Daporinad] | 16 | 12.6 | 20.4 | 22.5 | 22.2 | 27.1
CCN(CC)CCN(Cc1ccc(-c2ccc(C(F)(F)F)cc2)cc1)C(=O)Cn1c(SCc2ccc(F)cc2)nc(=O)c2c1CCC2 [Darapladib] | 0 | 0 | 0 | 0 | 8.3 | 0.4
Cc1nc(Nc2ncc(C(=O)Nc3c(C)cccc3Cl)s2)cc(N2CCN(CCO)CC2)n1 [Dasatinib] | 18.4 | 17 | 20.4 | 13.6 | 21.9 | 21.9
COc1cccc2c1C(=O)c1c(O)c3c(c(O)c1C2=O)C[C@@](O)(C(C)=O)C[C@@H]3O[C@H]1C[C@H](N)[C@H](O)[C@H](C)O1 [Daunorubicin] | 11.9 | 14.6 | 13.9 | 14.7 | 15.9 | 15.1
CC[C@@](C)(Nc1ccnc(-c2c[nH]c3ncccc23)n1)C(=O)NCC(F)(F)F [Decernotinib] | 0 | 3.3 | 0 | 0 | 0 | 0
Nc1ncn([C@H]2C[C@H](O)[C@@H](CO)O2)c(=O)n1 [Decitabine] | 0 | 1.7 | 0.3 | 6.9 | 11.4 | 4.8
CC(=O)N(O)CCCCCNC(=O)CCC(=O)N(O)CCCCCNC(=O)CCC(=O)N(O)CCCCCN [Deferoxamine] | 4.5 | 7.3 | 1.6 | 3.6 | 3.5 | 7.7
C[C@H]1O[C@@H](O[C@H]2[C@@H](O)C[C@H](O[C@H]3[C@@H](O)C[C@H](O[C@H]4CC[C@@]5(C)[C@H](CC[C@@H]6[C@@H]5C[C@@H](O)[C@]5(C)[C@@H](C7=CC(=O)OC7)CC[C@]65O)C4)O[C@@H]3C)O[C@@H]2C)C[C@H](O)[C@@H]1O [Digoxin] | 8.6 | 10.9 | 14.2 | 14.9 | 11.6 | 12.7
CCc1cnn2c(NCc3ccc[n+]([O-])c3)cc(N3CCCC[C@H]3CCO)nc12 [Dinaciclib] | 17.2 | 23.9 | 23 | 26.4 | 17.1 | 23.1
CC(=O)O[C@@]12CO[C@@H]1C[C@H](O)[C@@]1(C)C(=O)[C@H](O)C3=C(C)[C@@H](OC(=O)[C@H](O)[C@@H](NC(=O)OC(C)(C)C)c4ccccc4)C[C@@](O)([C@@H](OC(=O)c4ccccc4)[C@H]21)C3(C)C [Docetaxel] | 27.4 | 26.2 | 21.1 | 31.8 | 31.9 | 28.3
Cc1ccc(-n2nc(C(C)(C)C)cc2NC(=O)Nc2ccc(OCCN3CCOCC3)c3ccccc23)cc1 [Doramapimod] | 4.2 | 3.4 | 2.8 | 4.4 | 0.1 | 1.4
CN1CCN(c2ccc3nc(-c4c(N)c5c(F)cccc5[nH]c4=O)[nH]c3c2)CC1 [Dovitinib] | 0 | 0 | 0 | 0.5 | 0 | 0.3
COc1cccc2c1C(=O)c1c(O)c3c(c(O)c1C2=O)C[C@@](O)(C(=O)CO)C[C@@H]3O[C@H]1C[C@H](N)[C@H](O)[C@H](C)O1 [Doxorubicin] | 10.7 | 12.7 | 25.1 | 12.5 | 12.3 | 12.1
C[C@H](Nc1ncnc2nc[nH]c12)c1cc2cccc(Cl)c2c(=O)n1-c1ccccc1 [Duvelisib] | 4.6 | 0.5 | 0.3 | 0.4 | 0 | 0
Cc1ccc(NS(=O)(=O)c2cccc(C#N)c2)c2[nH]cc(C#N)c12 [E7820] | 6.5 | 9.7 | 15.8 | 5.4 | 0 | 12.8
Cc1cc(Nc2cc(N3CCN(C)CC3)nc(/C=C/c3ccccc3)n2)n[nH]1 [ENMD-2076] | 11.1 | 8.4 | 3.7 | 13.1 | 8.6 | 10.6
Cc1cc(C)c(CNC(=O)c2cc(-c3ccc(CN4CCOCC4)cc3)cc3c2cnn3C2CCCC2)c(=O)[nH]1 [EPZ-5687] | 0 | 0 | 0 | 0 | 0 | 2.7
NC(=O)/C(=C/n1cnc(-c2cc(C(F)(F)F)cc(C(F)(F)F)c2)n1)c1cncnc1 [Eltanexor] | 20 | 20.8 | 26.5 | 26.7 | 24.4 | 26.8
CC(C)(O)CNc1nc(Nc2ccnc(C(F)(F)F)c2)nc(-c2cccc(C(F)(F)F)n2)n1 [Enasidenib] | 0.3 | 0 | 0 | 0 | 0 | 0
COC(=O)N[C@@H](C)CNc1nccc(-c2cn(C(C)C)nc2-c2cc(Cl)cc(NS(C)(=O)=O)c2F)n1 [Encorafenib] | 0 | 0 | 0 | 0 | 0 | 0.1
C[C@@H]1CN(C(=O)c2ccc(NC(=O)c3cc(O[C@H](C)c4c(Cl)ccc(F)c4Cl)c(N)nn3)cc2)C[C@H](C)N1 [Ensartinib] | 1 | 1 | 0 | 0 | 0.1 | 0
Nc1ccccc1NC(=O)c1ccc(CNC(=O)OCc2cccnc2)cc1 [Entinostat] | 6 | 14.3 | 9.2 | 8.5 | 11.7 | 11.1
c1cn2cc(-c3ccc4cn[nH]c4c3)nc(Nc3ccc(N4CCOCC4)cc3)c2n1 [Entospletinib] | 0 | 1.4 | 0 | 1.2 | 0 | 0
CN1CCN(c2ccc(C(=O)Nc3n[nH]c4ccc(Cc5cc(F)cc(F)c5)cc34)c(NC3CCOCC3)c2)CC1 [Entrectinib] | 2.1 | 0.3 | 1.4 | 0 | 4 | 0
